Where two headings read alike, the source gives them in different places.

For data set [1], the target named is T1, dopamine transporter (DAT) (Rattus norvegicus, UniProt P23977). The settings on record: for [3H]DA/DAT Binding: Table 4, uptake/binding ratio.
Data set [2] deals with T1, dopamine transporter (DAT). The data set can be described thus: biochemical.
For data set [3], the target named is rat DAT (Rattus norvegicus, UniProt P23977). Description: Rat DAT binding, [3H]Win 35,428, striatal membranes. The settings on record: for NET/DAT / SERT/DAT: Table 4, binding selectivity.
Description: (§2) Briefly, rat striatal membranes were incubated with radioligand and inhibitor for 2 h on ice in a sodium phosphate buffer at a final Na^+ concentration of 30 nM, pH 7.4, at room temperature. The assays were terminated by filtration through glass fiber filtermats (Wallac, Inc., Gaithersburg, Md.), presoaked in 0.05% (v/v) polyethyleneimine, with a MACH3-96 Tomtec harvester (Wallac, Inc.). Filters were assayed for radioactivity in a Microbeta Plus liquid scintillation counter (Wallac, Inc.).
Data set [4] deals with T2, rat SERT (Rattus norvegicus, UniProt P31652).
T2 construct: from tissue; host or cells: rat striatum (membranes)
The data set can be described thus: Rat SERT binding, [3H]citalopram, striatal membranes.
Description: as §2

Data set [5] deals with T3, Norepinephrine (NET) Transporter (Rattus norvegicus, UniProt Q63380).
T3 construct: and norepinephrine Transporters in Rat Striatum; from tissue
Description: NET binding, [3H]nisoxetine.

The nature of data set [6]: Stability of free base on storage. The note with it: room temperature. Format: physicochemical. The protocol: To a solution of oxalyl chloride ([…], […]) in CH2Cl2 (3 mL) cooled to −78° C. was added dropwise 108 mg dimethylsulfoxide (1.38 mmol, 3 equiv). The mixture was stirred for 10 min and a solution of 236 mg racemic trans-3-hydroxy-4-[2-(diphenylmethoxy)ethyl]-1-[(4-fluorophenyl)methyl]piperidine (0.46 mmol) in CH2Cl2 (1 mL) was added dropwise. […] […]; H, 5.92; N, 2.76.

Data set [7] deals with T4, DAT (Rattus norvegicus, UniProt P23977).
T4 construct: from tissue; host or cells: rat striatum
Description: Uptake of [3H]DA by DAT, rat striatum. The class given is biochemical. The note with it: [3H]DA uptake, rat striatum; read-out: Ki (DAT), inhibition of DA uptake. The source says:
(§1) Transporter assays. The affinity of test compounds in binding to rat DAT and in inhibiting monoamine uptake was monitored as described by us previously. […] Rat cerebral cortex was used for assessing uptake of [^3H]serotonin by SERT and hippocampus for uptake of [^3H]NE by NET. […] At lease five triplicate concentrations of each test compound were studied, spaced evenly around the IC50 value. The latter was estimated by nonlinear computer curve-fitting procedures and converted to Ki with the Cheng-Prusoff equation.

The target in data set [8] is T5, NET (Rattus norvegicus, UniProt Q63380).
T5 construct: from tissue; host or cells: rat hippocampus
Description: Uptake of [3H]NE by NET, rat hippocampus. Format: biochemical. The note with it: [3H]NE uptake, read-out: Ki (NET), inhibition of NE uptake.
From the text: as §1

Setting [9] is: Table 3, read-out: NET, IC50, nM [3H]nisoxetine.

T1 sequence (P23977 whole entry): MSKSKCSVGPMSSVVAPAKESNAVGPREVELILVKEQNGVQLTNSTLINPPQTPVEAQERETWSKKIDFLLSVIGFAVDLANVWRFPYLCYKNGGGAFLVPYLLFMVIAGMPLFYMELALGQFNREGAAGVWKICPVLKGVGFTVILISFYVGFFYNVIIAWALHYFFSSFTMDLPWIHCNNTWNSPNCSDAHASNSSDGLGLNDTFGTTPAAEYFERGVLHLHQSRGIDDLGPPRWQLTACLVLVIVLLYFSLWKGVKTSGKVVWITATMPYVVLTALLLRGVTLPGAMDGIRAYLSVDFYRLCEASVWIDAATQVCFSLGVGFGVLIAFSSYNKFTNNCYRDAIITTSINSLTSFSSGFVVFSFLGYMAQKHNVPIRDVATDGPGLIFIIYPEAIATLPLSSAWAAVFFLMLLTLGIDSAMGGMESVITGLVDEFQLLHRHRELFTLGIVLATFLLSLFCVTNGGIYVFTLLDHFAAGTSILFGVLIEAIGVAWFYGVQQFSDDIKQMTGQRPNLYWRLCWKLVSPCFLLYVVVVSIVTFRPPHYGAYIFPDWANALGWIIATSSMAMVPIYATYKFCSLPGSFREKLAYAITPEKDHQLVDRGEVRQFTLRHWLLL
Chain of rat DAT (P23977 whole entry): as above
T2 sequence (P31652 whole entry): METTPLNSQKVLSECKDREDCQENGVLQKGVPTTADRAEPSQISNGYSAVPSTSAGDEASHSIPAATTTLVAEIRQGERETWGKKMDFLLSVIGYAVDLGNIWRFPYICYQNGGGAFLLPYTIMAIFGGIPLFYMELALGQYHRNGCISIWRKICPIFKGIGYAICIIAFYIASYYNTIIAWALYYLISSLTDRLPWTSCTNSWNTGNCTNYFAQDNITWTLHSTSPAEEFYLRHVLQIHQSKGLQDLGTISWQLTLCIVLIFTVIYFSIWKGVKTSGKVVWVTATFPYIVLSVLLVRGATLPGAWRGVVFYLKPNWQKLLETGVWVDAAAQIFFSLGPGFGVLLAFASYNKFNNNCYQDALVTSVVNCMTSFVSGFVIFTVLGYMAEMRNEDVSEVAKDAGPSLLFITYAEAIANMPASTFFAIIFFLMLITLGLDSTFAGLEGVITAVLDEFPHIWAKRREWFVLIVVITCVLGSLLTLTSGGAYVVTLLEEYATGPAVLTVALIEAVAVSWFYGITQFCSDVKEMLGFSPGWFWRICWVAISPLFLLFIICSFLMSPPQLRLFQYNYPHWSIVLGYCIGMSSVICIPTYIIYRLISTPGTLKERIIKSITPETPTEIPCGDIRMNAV
T3 sequence (Q63380 1-617): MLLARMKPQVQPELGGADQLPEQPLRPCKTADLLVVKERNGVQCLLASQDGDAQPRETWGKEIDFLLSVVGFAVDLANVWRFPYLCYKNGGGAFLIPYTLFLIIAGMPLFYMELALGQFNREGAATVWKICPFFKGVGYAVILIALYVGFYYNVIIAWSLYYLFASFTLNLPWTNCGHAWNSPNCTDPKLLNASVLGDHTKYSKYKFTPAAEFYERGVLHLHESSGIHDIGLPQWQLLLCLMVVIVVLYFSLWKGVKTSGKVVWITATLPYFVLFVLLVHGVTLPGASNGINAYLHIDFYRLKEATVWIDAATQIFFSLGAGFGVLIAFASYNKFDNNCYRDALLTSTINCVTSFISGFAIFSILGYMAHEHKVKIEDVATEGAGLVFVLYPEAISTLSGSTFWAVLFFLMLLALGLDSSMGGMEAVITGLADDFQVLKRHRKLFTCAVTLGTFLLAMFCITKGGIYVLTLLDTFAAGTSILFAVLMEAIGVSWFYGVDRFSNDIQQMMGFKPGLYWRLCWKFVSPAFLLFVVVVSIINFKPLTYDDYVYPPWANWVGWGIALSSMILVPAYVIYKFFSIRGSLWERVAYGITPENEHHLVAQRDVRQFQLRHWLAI
T4 sequence (P23977 whole entry): as the sequence (P23977 whole entry) above
T5 sequence (Q63380 1-617): as the sequence (Q63380 1-617) above

Broadly, the IC50 is the point on the concentration scale where inhibition reaches its midpoint. Take `Fc1ccc(CNC2CCC(C(c3ccccc3)c3ccccc3)NC2)cc1` (racemic) [(±)-7a, 2-diphenylmethyl-5-(4-fluorobenzylamino)piperidine]: in data set [1], the “[3H]DA/DAT Binding” value was 0.03. The same molecule gave an IC50 in data set [2] of 28.9 ± 2.5 nM. For the same molecule, in data set [3], the IC50 was found to be 30 ± 0.5 nM, the SERT/DAT selectivity ratio was determined as 93.7, the NET/DAT was 44.9 and the SERT/DAT turned out to be 93.7. In data set [4], this molecule yielded a concentration for half-maximal inhibition (IC50) of 2810 nM. Moreover, the IC50 in data set [5] (setting [9]) came out at 1350 nM.
Take `Fc1ccc(CN[C@H]2CC[C@H](C(c3ccccc3)c3ccccc3)NC2)cc1` (racemic) [(±)-7b, trans-2-diphenylmethyl-5-(4-fluorobenzylamino)piperidine]: the “[3H]DA/DAT Binding” value in data set [1] is recorded as 0.5. Further, the IC50 in data set [2] turned out to be 106 ± 10 nM; in data set [3], 212 ± 20 nM; in data set [4], 1330 nM; in data set [5] (setting [9]) it was 4470 nM. The SERT/DAT selectivity ratio in data set [3] is 6.28. The molecule also yielded an NET/DAT in data set [3] of 21. The molecule also showed an SERT/DAT in data set [3] of 6.28.
As for `O=C1CN(Cc2ccc(F)cc2)CCC1CCOC(c1ccccc1)c1ccccc1` (racemic) [Example 18, racemic 3-Keto-4-[2-(diphenylmethoxy)ethyl]-1-[(4-fluorophenyl)methyl]piperidine], in data set [6], the “stability of the free base” value is “decomposes at room temperature”. Further, the IC50 in data set [3] amounted to 99 ± 18 nM; in data set [4], 7750 nM; in data set [5] (Table 5, rat striatum, read-out: NET, IC50, nM [3H]nisoxetine), 6300 nM.
For the molecule `Fc1ccc(CN2CCC(CCOC(c3ccccc3)c3ccccc3)CC2)cc1F` [Example 2, 4-[2-(Diphenylmethoxy)ethyl]-1-[(3,4-difluorophenyl)methyl]piperidine], the IC50 in data set [2] was 12 ± 1.62 nM; in data set [3] (read-out: DAT, IC50, Table 1), 10.1 ± 0.9 nM; in data set [4] (Table 1, read-out: SERT, IC50), 1220 ± 139 nM. The SERT/DAT selectivity ratio in data set [3] is reported as 122.
Consider `Oc1cccc(CN2CCC(CCOC(c3ccccc3)c3ccccc3)CC2)c1` [Example 3-OH, 4-[2-(diphenylmethoxy)ethyl]-1-[(3-hydroxyphenyl)methyl]piperidine], for which the IC50 turned out to be 14.3 ± 3.7 nM in data set [3] (read-out: DAT, IC50, Table 1); 984 ± 94 nM in data set [4] (Table 1, read-out: SERT, IC50); 678 ± 13 nM in data set [5] (Table 1, read-out: NET, IC50).
`N#Cc1ccc(CN2CCC(CCOC(c3ccccc3)c3ccccc3)CC2)cc1` [Example 4, 4-[2-(Diphenylmethoxy)ethyl]-1-[(4-cyanophenyl)methyl]piperidine]: the IC50 in data set [2] stood at 4.58 ± 0.8 nM; in data set [3] (read-out: IC50 for the dopamine transporter), 3.7 nM; in data set [4] (read-out: SERT, IC50) it was 2280 ± 470 nM. In addition, the SERT/DAT selectivity ratio in data set [3] is 615.
By Ki is commonly meant the equilibrium dissociation constant of an inhibitor or competing ligand from its target. On to `O[C@@H](CN[C@H]1CC[C@@H](C(c2ccccc2)c2ccccc2)NC1)c1ccc(F)cc1` [Example 4a, (R)-2-[(3S,6S)-6-benzhydrylpiperidin-3-ylamino)-1-(4-fluorophenyl)ethanol], for which the Ki amounted to 236 nM in data set [7] and 1440 nM in data set [8].
The corresponding values for `O[C@H](CN[C@H]1CC[C@@H](C(c2ccccc2)c2ccccc2)NC1)c1ccc(F)cc1` [Example 4b, (S)-2-[(3S,6S)-6-benzhydrylpiperidin-3-ylamino)-1-(4-fluorophenyl)ethanol] are 152 nM and 306 nM.
For `CS(=O)(=O)Nc1ccc(CN2CCC(CCOC(c3ccccc3)c3ccccc3)CC2)cc1` [Example 6, 4-[2-(Diphenylmethoxy)ethyl]-1-[((4-methylsulfonylamino)phenyl)methyl]piperidine], the concentration for half-maximal inhibition (IC50) in data set [2] was found to be 9.7 ± 1.2 nM; in data set [3] (read-out: DAT, IC50, Table 1), 26.6 ± 1.4 nM; in data set [4] (Table 1, read-out: SERT, IC50), 586 ± 29.2 nM.
On to `Fc1ccc(CN2CCC(CNOC(c3ccccc3)c3ccccc3)CC2)cc1` [Example 7, 4-[((2-Diphenylmethoxy)amino)methyl]-1-[(4-fluorophenyl)methyl]piperidine], for which the IC50 is 16.6 ± 2.8 nM in data set [2]; 34.4 ± 4.2 nM in data set [3] (read-out: DAT, IC50, Table 1); 626 ± 33 nM in data set [4] (Table 1, read-out: SERT, IC50); 691 ± 68 nM in data set [5].
Turning to `Fc1ccc(CN2CCC(CCNC(c3ccccc3)c3ccccc3)CC2)cc1F` [Example 8, 4-[2-((Diphenylmethyl)amino)ethyl]-1-[(3,4-difluorophenyl)methyl]piperidine], the IC50 in data set [2] was determined as 10.7 ± 1.8 nM; in data set [4] (Table 1, read-out: SERT, IC50), 1590 ± 160 nM; in data set [5] (Table 1, read-out: NET, IC50), 1030 nM.
The corresponding values for `c1ccc(CN2CCC(CCNC(c3ccccc3)c3ccccc3)CC2)cc1` [Example 9] are 20.6 ± 2.5 nM, 1560 ± 208 nM and 2620 nM.
Regarding `Fc1ccc(CN2CCC(CNCC(c3ccccc3)c3ccccc3)CC2)cc1` [Example 11, 4-[[2-(Diphenyl)ethyl]aminomethyl]-1-[(4-fluorophenyl)methyl]piperidine], in data set [1], the “[3H]DA/DAT Binding” value amounted to 2.5. The IC50 in data set [1] (read-out: [3H]DA Inhibition, IC50, Table 2, rat synaptosome tissue) is 49.6 ± 7.2 nM; in data set [3] (read-out: DAT, IC50, Table 1) it was 19.7 ± 1.4 nM; in data set [4] (Table 1, read-out: SERT, IC50), 137 ± 45.6 nM; in data set [5] (Table 1, read-out: NET, IC50), 1110 nM. The same molecule showed an NET/DAT in data set [3] of 5.6. In data set [3], this molecule yielded an SERT/DAT of 6.9. Also, the “affinity for the DAT” value in data set [3] (in words) was “strong affinity”. In data set [4] (in words), the “affinity for the SERT” value is recorded as “moderate affinity”.
On to `Ic1ccc(CN2CCC(CCOC(c3ccccc3)c3ccccc3)CC2)cc1` [Example 19, 4-[2-(diphenylmethoxy)ethyl]-1-[(4-iodophenyl)methyl]piperidine], for which the IC50 in data set [3] (read-out: DAT, IC50, Table 1) amounted to 0.96 ± 0.16 nM; in data set [4] (Table 1, read-out: SERT, IC50), 2920 ± 432 nM; in data set [5] (Table 1, read-out: NET, IC50), 1150 ± 116 nM.

The record behind these values is patent US8211916B2, “N- and O-substituted 4-[2-(diphenylmethoxy)-ethyl]-1-[(phenyl)methyl]piperidine analogs and methods of treating CNS disorders therewith” (Wayne State University, priority 2000, dated 2012).
